Key:
CypA [1] = biological target: T1, CypA (Homo sapiens, UniProt P62937); experiment: biochemical
CypA [2] = biological target: T1, CypA; experiment: SPR-based binding affinity assay; settings: pH 7.4
[3] = tested on: mouse spleen cells induced by Con A; experiment: Proliferation of mouse spleen cells induced by Con A; type: cell-based; settings: 72 h, read-out: Inhibitory rate (%)

T1 sequence (P62937 whole entry): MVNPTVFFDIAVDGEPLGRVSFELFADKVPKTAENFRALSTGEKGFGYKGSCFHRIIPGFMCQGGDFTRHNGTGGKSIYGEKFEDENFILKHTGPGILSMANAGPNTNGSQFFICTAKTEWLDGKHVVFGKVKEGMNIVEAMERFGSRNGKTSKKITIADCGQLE

In the case of `O=C(Nc1ccc(S(=O)(=O)Nc2cnc3ccccc3n2)cc1)c1cc(-c2cccc(Br)c2)nc2ccccc12` [Compound 16j, 4-(2-(3-Bromophenyl)-quinoline-4-carboxamido)-N-quinoxalin-2-yl benzenesulfonamide], the “% inhibition at 10 μM” value (CypA [1]) is reported as 36.0% and the Kd (CypA [2]) is reported as 3.13 µM.
For `Cc1noc(NS(=O)(=O)c2ccc(NC(=O)c3cc(-c4ccc(Br)cc4)nc4ccccc34)cc2)c1C` [Compound 16c, 4-(2-(4-Bromophenyl)-quinoline-4-carboxamido)-N-(3,4-dimethyl-isoxazol-5-yl) benzenesulfonamide], the “% inhibition at 10 μM” value (CypA [1]) was 10.0% and the Kd (CypA [2]) was 4.11 µM.
`Cc1ccnc(NS(=O)(=O)c2ccc(NC(=O)c3ccnc(-c4ccccc4C)c3)cc2)n1` [Compound 16q, 4-(2-(2-Methylphenyl)-pyridine-4-carboxamido)-N-(4-methyl-pyrimidin-2-yl) benzenesulfonamide] showed a Kd (CypA [2]) of 340 µM.
With `Cc1noc(NS(=O)(=O)c2ccc(NC(=O)Cc3ccc(Cl)cc3)cc2)c1C` [Compound 17d, 4-(4-Chlorophenylacetamido)-N-(3,4-dimethyl-isoxazol-5-yl) benzenesulfonamide] the Kd (CypA [2]) was 0.35 µM.
In the case of `Cc1noc(NS(=O)(=O)c2ccc(NC(=O)c3cc(-c4cccs4)nc4ccccc34)cc2)c1C` [Compound 16f, 4-(2-Thiophen-2-yl-quinoline-4-carboxamido)-N-(3,4-dimethyl-isoxazol-5-yl) benzenesulfonamide], the “% inhibition at 10 μM” value (CypA [1]) is reported as 30.0% and the Kd (CypA [2]) is reported as 91.3 µM.
Work on `O=C(CCc1ccccc1)Nc1ccc(S(=O)(=O)Nc2cnc3ccccc3n2)cc1` [Compound 17c, 4-(3-Phenyl-propionamido)-N-quinoxalin-2-yl benzenesulfonamide] yielded a Kd (CypA [2]) of 1.06 µM.
`Cc1noc(NS(=O)(=O)c2ccc(NC(=O)c3cc(-c4cccc(F)c4)nc4ccccc34)cc2)c1C` [Compound 16a, 4-(2-(3-Fluorophenyl)-quinoline-4-carboxamido)-N-(3,4-dimethyl-isoxazol-5-yl) benzenesulfonamide] was tested, and the “% inhibition at 10 μM” value (CypA [1]) was 18.0% and the Kd (CypA [2]) was 10.2 µM.
Compound `Cc1noc(NS(=O)(=O)c2ccc(NC(=O)c3ccnc(-c4ccccc4)c3)cc2)c1C` [Compound 16m, 4-(2-Phenyl-pyridine-4-carboxamido)-N-(3,4-dimethyl-isoxazol-5-yl) benzenesulfonamide] has a Kd (CypA [2]) of 14.5 µM.
`Cc1noc(NS(=O)(=O)c2ccc(NC(=O)c3ccnc(-c4ccc(Br)cc4)c3)cc2)c1C` [Compound 16l, 4-(2-(4-Bromophenyl)-pyridine-4-carboxamido)-N-(3,4-dimethyl-isoxazol-5-yl) benzenesulfonamide] gave a Kd (CypA [2]) of 89.5 µM.
With `Cc1noc(NS(=O)(=O)c2ccc(NC(=O)c3cc(-c4ccncc4)nc4ccccc34)cc2)c1C` [Compound 16e, 4-(2-Pyridin-4-yl-quinoline-4-carboxamido)-N-(3,4-dimethyl-isoxazol-5-yl) benzenesulfonamide] the “% inhibition at 10 μM” value (CypA [1]) was 40.0% and the Kd (CypA [2]) was 10.6 µM.
`Cc1ccccc1-c1cc(C(=O)Nc2ccc(S(=O)(=O)Nc3onc(C)c3C)cc2)ccn1` [Compound 16p, 4-(2-(2-Methylphenyl)-pyridine-4-carboxamido)-N-(3,4-dimethyl-isoxazol-5-yl) benzenesulfonamide] showed a Kd (CypA [2]) of 7.61 µM.
Work on `Cc1noc(NS(=O)(=O)c2ccc(NC(=O)c3cc(C4CCCCC4)nc4ccccc34)cc2)c1C` [Compound 16g, 4-(2-Cyclohexanyl-quinoline-4-carboxamido)-N-(3,4-dimethyl-isoxazol-5-yl) benzenesulfonamide] yielded a Kd (CypA [2]) of 1.79 µM.
In the case of `O=C(Nc1ccc(S(=O)(=O)Nc2cnc3ccccc3n2)cc1)c1ccccc1` [Compound 17b, 4-Benzamido-N-quinoxalin-2-yl benzenesulfonamide], the “% inhibition at 10 μM” value (CypA [1]) is reported as 5.6% and the Kd (CypA [2]) is reported as 23.4 µM.
In the case of `Cc1noc(NS(=O)(=O)c2ccc(NC(=O)c3ccnc(-c4ccc(F)cc4)c3)cc2)c1C` [Compound 16o, 4-(2-(4-Fluorophenyl)-pyridine-4-carboxamido)-N-(3,4-dimethyl-isoxazol-5-yl) benzenesulfonamide], the “% inhibition at 10 μM” value (CypA [1]) is reported as 26.0% and the Kd (CypA [2]) is reported as 42.4 µM.
`COC(=O)c1cc(Cc2ccc(NCc3ccccc3)c(C(=O)OC)c2)ccc1NCc1ccccc1` [Compound 18g, 6,6′-Bis-benzylamino-3,3′-methanediyl-di-benzoic acid dimethyl ester] gave an inhibition at 1 µM [3] of 1.2 ± 6.41%, an inhibition at 10 µM [3] of 7.46 ± 4.13% and an inhibition at 100 µM [3] of 28.8 ± 3.39%. The IC50 (CypA [1]) was 6.23 µM.
In the case of `Cc1noc(NS(=O)(=O)c2ccc(NC(=O)c3cc(-c4cccc(Br)c4)nc4ccc(F)cc34)cc2)c1C` [Compound 16i, 4-(2-(3-Bromophenyl)-6-fluoro-quinoline-4-carboxamido)-N-(3,4-dimethyl-isoxazol-5-yl) benzenesulfonamide], the “% inhibition at 10 μM” value (CypA [1]) is reported as 32.0% and the Kd (CypA [2]) is reported as 2.25 µM.
`O=C(Cc1ccc(Cl)cc1Cl)Nc1ccc(S(=O)(=O)Nc2cnc3ccccc3n2)cc1` [Compound 17a, 4-(2,4-Dichlorophenylacetamido)-N-quinoxalin-2-yl benzenesulfonamide] showed a Kd (CypA [2]) of 37.7 µM.
With `Cc1noc(NS(=O)(=O)c2ccc(NC(=O)c3cc(-c4ccccc4Br)nc4ccccc34)cc2)c1C` [Compound 16d, 4-(2-(2-Bromophenyl)-quinoline-4-carboxamido)-N-(3,4-dimethyl-isoxazol-5-yl) benzenesulfonamide] the “% inhibition at 10 μM” value (CypA [1]) was 15.0% and the Kd (CypA [2]) was 223 µM.
`Cc1noc(NS(=O)(=O)c2ccc(NC(=O)c3ccnc(-c4ccc(Cl)cc4)c3)cc2)c1C` [Compound 16n, 4-(2-(4-Chlorophenyl)-pyridine-4-carboxamido)-N-(3,4-dimethyl-isoxazol-5-yl) benzenesulfonamide] gave a Kd (CypA [2]) of 1.86 µM.

— article PMC7119052 (Bioorganic & Medicinal Chemistry, 2005)
